Results taken from patent US20250295646A1, “METHODS OF USE OF T-TYPE CALCIUM CHANNEL MODULATORS” (Praxis Precision Medicines, Inc., priority 2022, published 2025).

Tested on: adult patients with essential tremor
Test: Example 16: accelerometer-based (Kinesia ONE) TETRAS upper limb score
Type: in vivo, human
Excerpt: Accelerometer (Kinesia ONE) TETRAS assessments were generally consistent with those conducted at the clinic. Accelerometer upper limb score values are summarized for Part A, the open-label titration phase of Part B, and the randomized withdrawal phase of Part B in Table 37, Table 38, and Table 39, respectively

[1] = Day 1, Post - dose, Part B, Formula (I) arm (N = 4), baseline upper limb score ≥10
[2] = Day 7, Part B, Formula (I) arm (N = 4), baseline upper limb score ≥10
[3] = Day 21, Part B, Formula (I) arm (N = 4), baseline upper limb score ≥10
[4] = Day 42, Post - dose, Part B, Formula (I) arm (N = 4), baseline upper limb score ≥10
[5] = Day 42, Pre - dose, Part B, Formula (I) arm (N = 4), baseline upper limb score ≥10
[6] = Day 42 Post - dose (Randomization Baseline), Part B, Formula (I) arm (N = 4), baseline upper limb score ≥10
[7] = Day 56, Part B, Formula (I) arm (N = 4), baseline upper limb score ≥10
[8] = Day 56, Part B, baseline upper limb score ≥10
[9] = Day 70, Part B, Formula (I) arm (N = 4), baseline upper limb score ≥10
[10] = Day 70, Part B, baseline upper limb score ≥10
[11] = Part A (N = 7), Day 1, Post - dose
[12] = Part B Open-Label Titration (N = 17), Day 1, Post - dose
[13] = Part B Open-Label Titration (N = 17), Day 7
[14] = Part B Open-Label Titration (N = 17), Day 21

SMILES: CC(C)(C)NC(=O)CN1CCC(CNC(=O)c2cc(F)cc(Cl)c2)CC1 [compound of formula (I), N-((1-(2-(tert-butylamino)-2-oxoethyl)piperidin-4-yl)methyl)-3-chloro-5-fluorobenzamide]
- Accelerometer-Based Upper Limb Score, Change from Baseline, Mean (SD) [1]: −0.45 (1.476)
- Accelerometer-Based Upper Limb Score, Change from Baseline, Median [1]: −0.83
- Accelerometer-Based Upper Limb Score, Mean (SD) [1]: 10.46 (2.611)
- Accelerometer-Based Upper Limb Score, Median [1]: 11.50
- Accelerometer-Based Upper Limb Score, Percentage Change from Baseline in Tremor Amplitude, Mean (SD) [1]: −7.70 (24.390) %
- Accelerometer-Based Upper Limb Score, Percentage Change from Baseline in Tremor Amplitude, Median [1]: −14.36%
- Accelerometer-Based Upper Limb Score, Change from Baseline, Mean (SD) [2]: −1.48 (0.814)
- Accelerometer-Based Upper Limb Score, Change from Baseline, Median [2]: −1.85
- Accelerometer-Based Upper Limb Score, Mean (SD) [2]: 9.67 (3.386)
- Accelerometer-Based Upper Limb Score, Median [2]: 11.10
- Accelerometer-Based Upper Limb Score, Percentage Change from Baseline in Tremor Amplitude, Mean (SD) [2]: −24.14 (12.303) %
- Accelerometer-Based Upper Limb Score, Percentage Change from Baseline in Tremor Amplitude, Median [2]: −29.88%
- Accelerometer-Based Upper Limb Score, Change from Baseline, Mean (SD) [3]: −0.56 (1.181)
- Accelerometer-Based Upper Limb Score, Change from Baseline, Median [3]: −0.55
- Accelerometer-Based Upper Limb Score, Mean (SD) [3]: 10.35 (3.035)
- Accelerometer-Based Upper Limb Score, Median [3]: 11.48
- Accelerometer-Based Upper Limb Score, Percentage Change from Baseline in Tremor Amplitude, Mean (SD) [3]: −9.09 (19.622) %
- Accelerometer-Based Upper Limb Score, Percentage Change from Baseline in Tremor Amplitude, Median [3]: −9.68%
- Accelerometer-Based Upper Limb Score, Change from Baseline, Mean (SD) [4]: −0.46 (1.605)
- Accelerometer-Based Upper Limb Score, Change from Baseline, Median [4]: −0.23
- Accelerometer-Based Upper Limb Score, Percentage Change from Baseline in Tremor Amplitude, Mean (SD) [4]: −6.66 (25.539) %
- Accelerometer-Based Upper Limb Score, Percentage Change from Baseline in Tremor Amplitude, Median [4]: −3.87%
- Accelerometer-Based Upper Limb Score, Change from Baseline, Mean (SD) [5]: 0.02 (1.702)
- Accelerometer-Based Upper Limb Score, Change from Baseline, Median [5]: 0.05
- Accelerometer-Based Upper Limb Score, Mean (SD) [5]: 10.94 (0.884)
- Accelerometer-Based Upper Limb Score, Median [5]: 11.23
- Accelerometer-Based Upper Limb Score, Percentage Change from Baseline in Tremor Amplitude, Mean (SD) [5]: 0.39 (28.120) %
- Accelerometer-Based Upper Limb Score, Percentage Change from Baseline in Tremor Amplitude, Median [5]: 0.78%
- Accelerometer-Based Upper Limb Score, Mean (SD) [6]: 10.45 (1.616)
- Accelerometer-Based Upper Limb Score, Median [6]: 10.88
- Accelerometer-Based Upper Limb Score, Change from Baseline, Mean (SD) [7]: −0.35 (3.213)
- Accelerometer-Based Upper Limb Score, Change from Baseline, Median [7]: 0.62
- Accelerometer-Based Upper Limb Score, Change from Randomization, LS Mean (SE) [7]: 0.071 (1.3594)
- Accelerometer-Based Upper Limb Score, Change from Randomization, Mean (SD) [7]: 0.11 (1.662)
- Accelerometer-Based Upper Limb Score, Change from Randomization, Median [7]: 0.70
- Accelerometer-Based Upper Limb Score, LS Mean Percentage Change in Tremor Amplitude from Randomization [7]: 1.4%
- Accelerometer-Based Upper Limb Score, Mean (SD) [7]: 10.56 (2.093)
- Accelerometer-Based Upper Limb Score, Median [7]: 10.88
- Accelerometer-Based Upper Limb Score, Percentage Change from Baseline in Tremor Amplitude, Mean (SD) [7]: −1.64 (43.539) %
- Accelerometer-Based Upper Limb Score, Percentage Change from Baseline in Tremor Amplitude, Median [7]: 9.78%
- Accelerometer-Based Upper Limb Score, Percentage Change from Randomization in Tremor Amplitude, Mean (SD) [7]: 2.97 (26.670) %
- Accelerometer-Based Upper Limb Score, Percentage Change from Randomization in Tremor Amplitude, Median [7]: 12.37%
- Accelerometer-Based Upper Limb Score, Change from Randomization, LS Mean (SE) for Difference (Formula (I) - Placebo) [8]: −2.321 (1.8339)
- Accelerometer-Based Upper Limb Score, Change from Randomization, p-value for LS Mean Difference (Formula (I) - Placebo) [8]: 0.2614
- Accelerometer-Based Upper Limb Score, LS Mean Percentage Change Difference (Formula (I) - Placebo) [8]: −35.5%
- Accelerometer-Based Upper Limb Score, Change from Baseline, Mean (SD) [9]: 2.02 (3.694)
- Accelerometer-Based Upper Limb Score, Change from Baseline, Median [9]: 0.35
- Accelerometer-Based Upper Limb Score, Change from Randomization, LS Mean (SE) [9]: 3.223 (1.4066)
- Accelerometer-Based Upper Limb Score, Change from Randomization, Mean (SD) [9]: 3.02 (2.533)
- Accelerometer-Based Upper Limb Score, Change from Randomization, Median [9]: 2.00
- Accelerometer-Based Upper Limb Score, LS Mean Percentage Change in Tremor Amplitude from Randomization [9]: 46.1%
- Accelerometer-Based Upper Limb Score, Mean (SD) [9]: 13.17 (0.862)
- Accelerometer-Based Upper Limb Score, Median [9]: 13.00
- Accelerometer-Based Upper Limb Score, Percentage Change from Baseline in Tremor Amplitude, Mean (SD) [9]: 22.11 (42.165) %
- Accelerometer-Based Upper Limb Score, Percentage Change from Baseline in Tremor Amplitude, Median [9]: 6.50%
- Accelerometer-Based Upper Limb Score, Percentage Change from Randomization in Tremor Amplitude, Mean (SD) [9]: 39.81 (24.948) %
- Accelerometer-Based Upper Limb Score, Percentage Change from Randomization in Tremor Amplitude, Median [9]: 31.87%
- Accelerometer-Based Upper Limb Score, Change from Randomization, LS Mean (SE) for Difference (Formula (I) - Placebo) [10]: 0.341 (1.8367)
- Accelerometer-Based Upper Limb Score, Change from Randomization, p-value for LS Mean Difference (Formula (I) - Placebo) [10]: 0.8597
- Accelerometer-Based Upper Limb Score, LS Mean Percentage Change Difference (Formula (I) - Placebo) [10]: 3.6%
- Accelerometer-Based Upper Limb Score, Change from Baseline, Median [11]: 0.20
- Accelerometer-Based Upper Limb Score, observed, Median [11]: 9.40
- Accelerometer-based Upper Limb Score, Change from Baseline, LS Mean [11]: 0.417
- Accelerometer-based Upper Limb Score, Change from Baseline, Mean [11]: 0.42
- Accelerometer-based Upper Limb Score, observed, Mean [11]: 10.93
- LS Mean Percentage Change in Tremor Amplitude [11]: 7.7%
- Percentage Change from Baseline in Tremor Amplitude, Mean [11]: 7.49%
- Percentage Change from Baseline in Tremor Amplitude, Median [11]: 3.76%
- Accelerometer-Based Upper Limb Score, Change from Baseline, Median (Part A (N = 7), Day 7): −0.40
- Accelerometer-Based Upper Limb Score, observed, Median (Part A (N = 7), Day 7): 10.38
- Accelerometer-based Upper Limb Score, Change from Baseline, LS Mean (Part A (N = 7), Day 7): −1.100
- Accelerometer-based Upper Limb Score, Change from Baseline, Mean (Part A (N = 7), Day 7): −1.10
- Accelerometer-based Upper Limb Score, observed, Mean (Part A (N = 7), Day 7): 9.31
- LS Mean Percentage Change in Tremor Amplitude (Part A (N = 7), Day 7): −19.0%
- Percentage Change from Baseline in Tremor Amplitude, Mean (Part A (N = 7), Day 7): −15.89%
- Percentage Change from Baseline in Tremor Amplitude, Median (Part A (N = 7), Day 7): −7.39%
- Accelerometer-Based Upper Limb Score, Change from Baseline, Median (Part A (N = 7), Day 14): −1.15
- Accelerometer-Based Upper Limb Score, observed, Median (Part A (N = 7), Day 14): 8.30
- Accelerometer-based Upper Limb Score, Change from Baseline, LS Mean (Part A (N = 7), Day 14): −1.300
- Accelerometer-based Upper Limb Score, Change from Baseline, Mean (Part A (N = 7), Day 14): −1.30
- Accelerometer-based Upper Limb Score, observed, Mean (Part A (N = 7), Day 14): 8.23
- LS Mean Percentage Change in Tremor Amplitude (Part A (N = 7), Day 14): −22.1%
- Percentage Change from Baseline in Tremor Amplitude, Mean (Part A (N = 7), Day 14): −20.27%
- Percentage Change from Baseline in Tremor Amplitude, Median (Part A (N = 7), Day 14): −19.80%
- Accelerometer-Based Upper Limb Score, Change from Baseline, Median (Part A (N = 7), Day 21): −1.05
- Accelerometer-Based Upper Limb Score, observed, Median (Part A (N = 7), Day 21): 10.98
- Accelerometer-based Upper Limb Score, Change from Baseline, LS Mean (Part A (N = 7), Day 21): −0.117
- Accelerometer-based Upper Limb Score, Change from Baseline, Mean (Part A (N = 7), Day 21): −0.12
- Accelerometer-based Upper Limb Score, observed, Mean (Part A (N = 7), Day 21): 10.11
- LS Mean Percentage Change in Tremor Amplitude (Part A (N = 7), Day 21): −2.2%
- Percentage Change from Baseline in Tremor Amplitude, Mean (Part A (N = 7), Day 21): −2.75%
- Percentage Change from Baseline in Tremor Amplitude, Median (Part A (N = 7), Day 21): −18.25%
- Accelerometer-Based Upper Limb Score, Change from Baseline, LS Mean (SE) [12]: −0.633 (0.3456)
- Accelerometer-Based Upper Limb Score, Change from Baseline, Mean (SD) [12]: −0.56 (1.700)
- Accelerometer-Based Upper Limb Score, Change from Baseline, Median [12]: −0.60
- Accelerometer-Based Upper Limb Score, observed, Mean (SD) [12]: 9.67 (3.109)
- Accelerometer-Based Upper Limb Score, observed, Median [12]: 10.50
- LS Mean Percentage Change in Tremor Amplitude [12]: −11.4%
- Percentage Change from Baseline in Tremor Amplitude, Mean (SD) [12]: −8.42 (25.587) %
- Percentage Change from Baseline in Tremor Amplitude, Median [12]: −10.87%
- Accelerometer-Based Upper Limb Score, Change from Baseline, LS Mean (SE) [13]: −1.235 (0.3722)
- Accelerometer-Based Upper Limb Score, Change from Baseline, Mean (SD) [13]: −1.15 (2.151)
- Accelerometer-Based Upper Limb Score, Change from Baseline, Median [13]: −1.20
- Accelerometer-Based Upper Limb Score, observed, Mean (SD) [13]: 8.91 (3.335)
- Accelerometer-Based Upper Limb Score, observed, Median [13]: 8.85
- LS Mean Percentage Change in Tremor Amplitude [13]: −21.1%
- Percentage Change from Baseline in Tremor Amplitude, Mean (SD) [13]: −15.44 (29.596) %
- Percentage Change from Baseline in Tremor Amplitude, Median [13]: −19.95%
- Accelerometer-Based Upper Limb Score, Change from Baseline, LS Mean (SE) [14]: −1.835 (0.4715)
- Accelerometer-Based Upper Limb Score, Change from Baseline, Mean (SD) [14]: −1.57 (2.142)
- Accelerometer-Based Upper Limb Score, Change from Baseline, Median [14]: −1.00
- Accelerometer-Based Upper Limb Score, observed, Mean (SD) [14]: 9.09 (2.989)
- Accelerometer-Based Upper Limb Score, observed, Median [14]: 8.95
- LS Mean Percentage Change in Tremor Amplitude [14]: −29.7%
- Percentage Change from Baseline in Tremor Amplitude, Mean (SD) [14]: −21.20 (27.676) %
